In assay [1] the test system is Diabrotica balteata. In words: Diabrotica balteata spray test. As to conditions: 168 h, beetle larvae on wheat, after 7 days, read-out: efficacy (wheat plant growth); for pest or weed control at 100 g/ha: 100 g/ha (=32 μg/cavity); for pest or weed control at 500 g/ha: 500 g/ha (=160 μg/cavity); for pest or weed control at 125 g/ha: 125 g/ha (=40 μg/cavity). In kind it is in vivo. On the procedure: Diabrotica balteata—Spray Test Solvent: 78 parts by weight of acetone • • 1.5 parts by weight of dimethylformamide Emulsifier: alkylaryl polyglycol ether
(§1) To produce a suitable active compound formulation, 1 part by weight of active compound is dissolved using the stated parts by weight of solvent and made up with water containing an emulsifier concentration of 1000 ppm until the desired concentration is attained. To produce further test concentrations, the formulation is diluted with emulsifier-containing water.
Pre-swollen wheat grains (Triticum aestivum) are incubated in a multiwell plate filled with agar and a little water for one day (5 seed grains per cavity). The germinated wheat grains are sprayed with an active compound formulation of the desired concentration. Subsequently, each cavity is infected with 10-20 beetle larvae of Diabrotica balteata.
After 7 days, the efficacy in % is determined. 100% means that all wheat plants have grown as in the untreated, uninfected control; 0% means that no wheat plant has grown.

In assay [2] the test system is Spodoptera frugiperda. In words: Spodoptera frugiperda spray test. As to conditions: foliar, 168 h, 100 g/ha, maize leaf discs, after 7 days, read-out: efficacy (caterpillars killed). The format is in vivo. On the procedure: Spodoptera frugiperda—Spray Test Solvent: 78.0 parts by weight of acetone • • 1.5 parts by weight of dimethylformamide Emulsifier: alkylaryl polyglycol ether
as §1
Leaf discs of maize (Zea mays) are sprayed with an active compound formulation of the desired concentration and, after drying, populated with caterpillars of the fall armyworm (Spodoptera frugiperda).
After 7 days, the efficacy in % is determined. 100% means that all the caterpillars have been killed; 0% means that no caterpillar has been killed.

On to `CC(C)c1ccccc1NC(=S)NN=Cc1ccc(-c2nc(NC3CCOC3)n(-c3ccc(OC(F)(F)F)cc3)n2)cc1` (stereo not shown) [Compound I-068], for which, in assay [1], the pest or weed control at 100 g/ha worked out at 100% and the pest or weed control at 500 g/ha worked out at 100%. Further, the pest or weed control at 100 g/ha in assay [2] amounted to 100%.
For the compound `CCNc1nc(-c2ccc(NC(=O)N=C3SCC(=O)N3c3ccccc3C(C)C)cc2)nn1-c1ccc(OC(F)(F)F)cc1` [Compound I-042], the pest or weed control at 100 g/ha in assay [1] and in assay [2] was 100% in each case.
In the case of `CC(C)c1ccccc1NC(=S)NN=Cc1ccc(-c2nc(N)n(-c3ccc(OC(F)(F)F)cc3)n2)cc1` [Compound I-021], in assay [1], the pest or weed control at 125 g/ha stood at 100% and the pest or weed control at 500 g/ha amounted to 100%. Moreover, the pest or weed control at 100 g/ha in assay [2] stood at 100%.
Consider `CNc1cc(-c2ccc(C=NN=C3SCC(=O)N3c3ccccc3C(C)C)cc2)nn1-c1ccc(OC(F)(F)F)cc1` [Compound I-106], for which the pest or weed control at 100 g/ha in assay [1] and in assay [2] was 100% in each case.
Take `CNc1nc(-c2ccc(C=NN=C3SCCN3c3ccccc3C(C)C)cc2)nn1-c1ccc(OC(F)(F)F)cc1` [Compound I-091]: the values for the pest or weed control at 100 g/ha in assay [1] and in assay [2] were 100% and 83%, respectively.
On to `C=CCNc1nc(-c2ccc(C=NNC(=S)Nc3ccccc3C(C)C)cc2)nn1-c1ccc(OC(F)(F)F)cc1` [Compound I-071], for which the pest or weed control at 100 g/ha in assay [1] and in assay [2] was 100% in each case.
For the compound `CNc1nc(-c2ccc(C=NNC(=S)Nc3ccccc3C(C)C)cc2)nn1-c1ccc(OC(F)(F)C(F)(F)F)cc1` [Compound I-067], in assay [1], the pest or weed control at 100 g/ha is 100% and the pest or weed control at 500 g/ha came out at 100%. The pest or weed control at 100 g/ha in assay [2] was 100%.
On to `CC(=O)Nc1cc(-c2ccc(C=NNC(=S)Nc3ccccc3C(C)C)cc2)nn1-c1ccc(OC(F)(F)F)cc1` [Compound I-040], for which the pest or weed control at 100 g/ha in assay [1] came out at 80%; in assay [2], 100%. The pest or weed control at 500 g/ha in assay [1] was 100%.
In the case of `COC(CCNc1nc(-c2ccc(C=NN=C3SCC(=O)N3c3ccccc3C(C)C)cc2)nn1-c1ccc(OC(F)(F)F)cc1)OC` [Compound I-088], the pest or weed control at 100 g/ha in assay [1] and in assay [2] was 100% in each case.
Regarding `CNc1nc(-c2c(F)cc(C=NNC(=S)Nc3ccccc3C(C)C)cc2F)nn1-c1ccc(OC(F)(F)F)cc1` [Compound I-120], the pest or weed control at 100 g/ha in assay [1] and in assay [2] was 100% each time.
Turning to `CCNc1nc(-c2ccc(C=NNC(=S)Nc3ccccc3C(C)C)cc2)nn1-c1ccc(OC(F)(F)F)cc1` [Compound I-050], the pest or weed control at 100 g/ha in assay [1] and in assay [2] was 100% in each case. The pest or weed control at 500 g/ha in assay [1] is 100%.
With `CC(=O)Nc1cc(-c2ccc(C=NN=C3SCC(=O)N3c3ccccc3C(C)C)cc2)nn1-c1ccc(OC(F)(F)F)cc1` [Compound I-039], the pest or weed control at 100 g/ha amounted to 80% in assay [1] and 100% in assay [2].
Take `CNc1nc(-c2ccc(C=NN3CCCSC3=Nc3ccccc3C(C)C)cc2)nn1-c1ccc(OC(F)(F)F)cc1` [Compound I-102]: the pest or weed control at 100 g/ha in assay [1] and in assay [2] was 100% each time.
As to `CC(C)c1ccccc1N1C(=O)CSC1=NC(=O)Nc1ccc(-c2nc(N)n(-c3ccc(OC(F)(F)F)cc3)n2)cc1` [Compound I-025], in assay [1], the pest or weed control at 125 g/ha worked out at 100% and the pest or weed control at 500 g/ha amounted to 100%. Besides, the pest or weed control at 100 g/ha in assay [2] worked out at 100%.
Turning to `CC(C)c1ccccc1N1C(=O)CSC1=NN=Cc1ccc(-c2nc(N)n(-c3ccc(OC(F)(F)C(F)(F)F)cc3)n2)cc1` [Compound I-065], the pest or weed control at 100 g/ha in assay [1] and in assay [2] was 100% each time. Moreover, the pest or weed control at 500 g/ha in assay [1] was found to be 100%.
Turning to `CC(C)c1ccccc1NC(=S)NN=Cc1ccc(-c2nc(NCCS(C)(=O)=O)n(-c3ccc(OC(F)(F)F)cc3)n2)cc1` [Compound I-093], the pest or weed control at 100 g/ha in assay [1] and in assay [2] was 100% in each case.
As to `CCOC(CNc1nc(-c2ccc(C=NN=C3SCC(=O)N3c3ccccc3C(C)C)cc2)nn1-c1ccc(OC(F)(F)F)cc1)OCC` [Compound I-085], the pest or weed control at 100 g/ha in assay [1] is 80%; in assay [2], 100%.
On to `CC(=O)Nc1nc(-c2ccc(NC(=O)N=C3SCC(=O)N3c3ccccc3C(C)C)cc2)nn1-c1ccc(OC(F)(F)F)cc1` [Compound I-034], for which, in assay [1], the pest or weed control at 100 g/ha came out at 100% and the pest or weed control at 500 g/ha stood at 100%. Moreover, in assay [2], the pest or weed control at 100 g/ha was determined as 100%.
Consider `COCCNc1nc(-c2ccc(NC(=O)N=C3SCC(=O)N3c3ccccc3C(C)C)cc2)nn1-c1ccc(OC(F)(F)F)cc1` [Compound I-080], for which the pest or weed control at 100 g/ha in assay [1] and in assay [2] was 100% each time.
For the compound `CON(C)c1nc(-c2ccc(NC(=O)N=C3SCC(=O)N3c3ccccc3C(C)C)cc2)nn1-c1ccc(OC(F)(F)F)cc1` [Compound I-046], in assay [1], the pest or weed control at 100 g/ha was determined as 100% and the pest or weed control at 500 g/ha was determined as 100%. Also, the pest or weed control at 100 g/ha in assay [2] came to 100%.
Regarding `CNc1nc(-c2ccc(C=NN=C3SCC(=O)N3c3ccccc3C(C)C)cc2Cl)nn1-c1ccc(OC(F)(F)F)cc1` [Compound I-112], the pest or weed control at 100 g/ha in assay [1] and in assay [2] was 100% throughout.
As for `CCC(=O)Nc1nc(-c2ccc(NC(=O)N=C3SCC(=O)N3c3ccccc3C(C)C)cc2)nn1-c1ccc(OC(F)(F)F)cc1` [Compound I-036], in assay [1], the pest or weed control at 100 g/ha stood at 80% and the pest or weed control at 500 g/ha is 100%. In addition, the pest or weed control at 100 g/ha in assay [2] was 100%.
Turning to `CC(C)c1ccccc1N1C(=O)CSC1=NN=Cc1ccc(-c2nc(NCCS(C)(=O)=O)n(-c3ccc(OC(F)(F)F)cc3)n2)cc1` [Compound I-095], the pest or weed control at 100 g/ha in assay [1] and in assay [2] was 100% each time.
In the case of `CNc1nc(-c2ccc(/C=N/NC(=S)Nc3ccccc3C(C)C)c(Cl)c2)nn1-c1ccc(OC(F)(F)F)cc1` [Compound I-114], the pest or weed control at 100 g/ha in assay [1] and in assay [2] was 100% each time.
Take `CC(C)c1ccccc1NC(=S)NN=Cc1ccc(-c2nc(NC3COC3)n(-c3ccc(OC(F)(F)F)cc3)n2)cc1` [Compound I-049]: in assay [1], the pest or weed control at 100 g/ha turned out to be 100% and the pest or weed control at 500 g/ha came out at 100%. Moreover, the pest or weed control at 100 g/ha in assay [2] came to 100%.
On to `CC(C)c1ccccc1NC(=S)NN=Cc1ccc(-c2nc(N)n(-c3ccc(OC(F)(F)C(F)(F)F)cc3)n2)cc1` [Compound I-066], for which the pest or weed control at 100 g/ha in assay [1] and in assay [2] was 100% throughout. In assay [1], the pest or weed control at 500 g/ha came out at 100%.
Consider `CC(C)c1ccccc1NC(=S)NN=Cc1ccc(-c2nc(NC3CSC3)n(-c3ccc(OC(F)(F)C(F)(F)F)cc3)n2)cc1` [Compound I-100], for which the pest or weed control at 100 g/ha in assay [1] and in assay [2] was 100% throughout.
For `CC(C)c1ccccc1N1C(=O)CSC1=NC(=O)Nc1ccc(-c2nc(NC(=O)C3CC3)n(-c3ccc(OC(F)(F)F)cc3)n2)cc1` [Compound I-035], the pest or weed control at 100 g/ha came to 80% in assay [1] and 100% in assay [2]. The pest or weed control at 500 g/ha in assay [1] is 100%.
Take `CC(C)c1ccccc1NC(=S)NN=Cc1ccc(-c2nc(N3CCOCC3)n(-c3ccc(OC(F)(F)F)cc3)n2)cc1` [Compound I-019]: in assay [1], the pest or weed control at 125 g/ha was found to be 100% and the pest or weed control at 500 g/ha came to 100%. In assay [2], the pest or weed control at 100 g/ha was found to be 100%.
On to `CC(C)c1ccccc1NC(=S)NN=Cc1ccc(-c2nc(/N=C/N(C)C)n(-c3ccc(OC(F)(F)F)cc3)n2)cc1` [Compound I-061], for which, in assay [1], the pest or weed control at 100 g/ha was 80% and the pest or weed control at 500 g/ha stood at 80%. For the same compound, in assay [2], the pest or weed control at 100 g/ha came to 100%.
On to `CCOCCNc1nc(-c2ccc(NC(=O)N=C3SCC(=O)N3c3ccccc3C(C)C)cc2)nn1-c1ccc(OC(F)(F)F)cc1` [Compound I-044], for which the pest or weed control at 100 g/ha amounted to 80% in assay [1] and 100% in assay [2]. Moreover, the pest or weed control at 500 g/ha in assay [1] came to 80%.
Take `COCCNc1nc(-c2ccc(C=NNC(=S)Nc3ccccc3C(C)C)cc2)nn1-c1ccc(OC(F)(F)F)cc1` [Compound I-072]: the pest or weed control at 100 g/ha in assay [1] and in assay [2] was 100% throughout.
Take `CNc1nc(-c2ccc(C=NN=C3SCC(=O)CN3c3ccccc3C(C)C)cc2)nn1-c1ccc(OC(F)(F)F)cc1` [Compound I-103]: the pest or weed control at 100 g/ha in assay [1] and in assay [2] was 100% each time.
For `CC(C)c1ccccc1N1C(=O)CSC1=NN=Cc1ccc(-c2nc(NC3CC3)n(-c3ccc(OC(F)(F)F)cc3)n2)cc1` [Compound I-058], in assay [1], the pest or weed control at 100 g/ha came out at 100% and the pest or weed control at 500 g/ha was determined as 100%. Also, the pest or weed control at 100 g/ha in assay [2] was determined as 100%.

The record behind these values is patent US20220289691A1, “5-AMINO-SUBSTITUTED PYRAZOLES AND TRIAZOLES AS PEST CONTROL AGENTS” (Bayer Aktiengesellschaft, priority 2019, published 2022).
